1 substance from patent US20250171715A1, “DETERGENT AND CLEANING AGENT CONTAINING ANTIMICROBIAL PEPTIDE” (HENKEL AG & CO. KGAA, priority 2023, published 2025) can be followed below.

Assay [1] concerns Staphylococcus aureus ATCC 6538/K3212. The format is cell-based. The settings on record: S. aureus; 100 mg/L in water; positive control. On the procedure: (§1) The antibacterial activity of the peptides shown in Table 2 was tested at a concentration of 5,000 mg/L in an MPN suspension test (MPN=Most Probable Number) on various microorganisms (Staphylococcus aureus ATCC 6538/[…], initial bacterial count 3.6E±0.6; Klebsiella pneumoniae ATCC 4352/[…], initial bacterial count 6.1E±06). The respective peptide solutions were dissolved in water (control), detergent without enzyme (A) and detergent with enzyme (B) at a concentration of 5,000 mg/L. The MPN suspension test was performed in deep-well microtiter plates (1,000 μl volume per well), each well containing 800 μl application concentration (AWK, prepared in distilled water) with a 1.25-fold concentration of the test substance (final concentration: 5,000 mg/L). In each case, 100 μl of the bacterial suspension was added (final concentration: 1.0E±08 CFU/ml). […] After at least 5 min and a maximum of 30 min inactivation, the number of living test germ cells was determined. […] For evaluation, the growth in the wells, indicated by turbidity of the nutrient broth, was determined visually or using the Tecan reader. The microbicidal activity was calculated using the following formula: RF=K/D or log 10K-log10D, where RF=reduction factor, K=number of CFU/ml without exposure to the product (water control) and D=number of CFU/ml after exposure to the product.

Assay [2] deals with Klebsiella pneumoniae ATCC 4352/K2510. The assay is classed as cell-based. As to conditions: K. pneumoniae; 100 mg/L in water; positive control. On the procedure:
as §1

For Benzalkonium chloride, the figures for the “Log reduction, Water” value in assay [1] and in assay [2] were >4.65 and >4.40, respectively.
